From PMC11776485 (Virulence, 2025)

Target: T1, MoOxdC (Pyricularia oryzae, UniProt G4NLF1)
T1 construct: gene MGG_14061
Details: 50 mM citrate pH 4.0, 37 °C, 30 min; 0.2 mL of 8 mM oxalic acid in 1.5 mL; no added metal

T1 sequence (G4NLF1 1-500 limits assumed): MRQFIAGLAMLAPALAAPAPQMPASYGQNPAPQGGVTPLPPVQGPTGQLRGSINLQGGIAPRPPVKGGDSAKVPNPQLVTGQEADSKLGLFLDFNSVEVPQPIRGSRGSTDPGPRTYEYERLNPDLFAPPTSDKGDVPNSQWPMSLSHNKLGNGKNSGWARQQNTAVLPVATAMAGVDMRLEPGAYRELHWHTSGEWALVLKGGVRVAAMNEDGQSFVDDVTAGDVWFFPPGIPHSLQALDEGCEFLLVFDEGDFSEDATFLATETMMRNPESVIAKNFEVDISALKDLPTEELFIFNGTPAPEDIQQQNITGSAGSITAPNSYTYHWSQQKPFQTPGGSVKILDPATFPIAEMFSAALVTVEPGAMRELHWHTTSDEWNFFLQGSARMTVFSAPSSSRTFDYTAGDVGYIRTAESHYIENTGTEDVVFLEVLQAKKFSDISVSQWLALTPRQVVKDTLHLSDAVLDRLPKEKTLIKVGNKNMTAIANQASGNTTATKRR

## O=C(O)C(=O)O [oxalic acid]
  residual oxalic acid by Fe(III)-sulfosalicylate absorbance at 510 nm; formic aci: The oxalate decarboxylase activity of the purified recombinant MoOxdC protein was analyzed.
